Three molecules from ChEMBL document CHEMBL6177999, “Discovery of 3-(Fluoro-imidazolyl)pyridazine Derivatives as Potent STING Agonists with Antitumor Activity” (J Med Chem, 2025) can be followed below.

The target in data set [1] is T1, Stimulator of interferon genes protein (Mus musculus, UniProt Q3TBT3).
T1 sequence (Q3TBT3 whole entry): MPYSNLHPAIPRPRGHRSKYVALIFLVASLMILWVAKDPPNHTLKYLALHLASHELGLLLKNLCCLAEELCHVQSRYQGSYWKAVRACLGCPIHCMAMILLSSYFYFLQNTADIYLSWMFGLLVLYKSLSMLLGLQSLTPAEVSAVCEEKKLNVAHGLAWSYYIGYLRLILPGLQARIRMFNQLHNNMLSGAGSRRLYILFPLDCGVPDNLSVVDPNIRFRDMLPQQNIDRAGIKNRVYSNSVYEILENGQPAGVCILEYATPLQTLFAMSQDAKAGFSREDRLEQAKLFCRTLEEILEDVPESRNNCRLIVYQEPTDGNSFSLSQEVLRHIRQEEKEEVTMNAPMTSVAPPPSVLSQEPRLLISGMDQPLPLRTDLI
Put plainly: Displacement of 5-FAM-labeled diABZI tracer from N-terminal 6xHis-tagged wild-type mouse STING CTD extracted from Escherichia coli BL21(DE3) incubated for 30 mins by competitive binding based fluorescence polarization assay. Background: Fluorescence polarisation rises when a labelled molecule tumbles more slowly, as on binding a larger partner.

The target in data set [2] is T1, Stimulator of interferon genes protein. Put plainly: Agonist activity at STING in mouse RAW-Lucia ISG cells harbouring SEAP reporter gene assessed as activation of cGAS-STING signaling pathway incubated for 24 hrs by QUANTI-Blue reagent based analysis. (In a reporter assay the amount or activity of a reporter protein is the signal.)
Data set [3] shares this target. Put plainly: Agonist activity at STING in mouse RAW-Lucia ISG-KO-STING cells harbouring SEAP reporter gene assessed as activation of cGAS-STING signaling pathway incubated for 24 hrs by QUANTI-Blue reagent based analysis.
Data set [4] can be described thus: Clearance in female C57BL/6 mouse at 10 mg/kg, iv measured up to 24 hrs by LC-MS/MS analysis. To be noted: in vivo.
The test system of the next data set is B16-F10. Put plainly: Antitumor activity against mouse B16-F10 cells allografted in female C57BL/6 mouse assessed as tumor growth inhibition at 30 mg/kg, iv qd relative to control. The note with it: B16-F10, read-out: TGI.
Data set [5] deals with T2, Stimulator of interferon genes protein (Homo sapiens, UniProt Q86WV6). Put plainly: Displacement of 5-FAM-labeled diABZI tracer from N-terminal 6xHis-tagged human STING R232H mutant CTD extracted from Escherichia coli BL21(DE3) incubated for 30 mins by competitive binding based fluorescence polarization assay.
T2 sequence (Q86WV6 whole entry): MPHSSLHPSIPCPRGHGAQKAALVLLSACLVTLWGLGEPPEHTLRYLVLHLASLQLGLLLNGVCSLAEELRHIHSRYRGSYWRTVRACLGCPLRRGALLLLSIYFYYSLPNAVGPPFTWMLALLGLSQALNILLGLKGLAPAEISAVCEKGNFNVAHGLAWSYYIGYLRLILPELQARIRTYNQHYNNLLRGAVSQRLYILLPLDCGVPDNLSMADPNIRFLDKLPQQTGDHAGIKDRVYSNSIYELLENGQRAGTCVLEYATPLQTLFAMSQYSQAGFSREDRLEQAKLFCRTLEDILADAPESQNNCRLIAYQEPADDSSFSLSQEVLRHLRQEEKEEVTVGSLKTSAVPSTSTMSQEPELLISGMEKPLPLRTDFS
Data set [6] has as its target T2, Stimulator of interferon genes protein. Briefly: Displacement of 5-FAM-labeled diABZI tracer from N-terminal 6xHis-tagged wild-type human STING CTD extracted from Escherichia coli BL21(DE3) incubated for 30 mins by competitive binding based fluorescence polarization assay.
Data set [7] addresses Stimulator of interferon genes protein (Homo sapiens, UniProt Q86WV6, G230A/R293Q).
The target in data set [8] is Stimulator of interferon genes protein (Homo sapiens, UniProt Q86WV6, R293Q).
Chain of Stimulator of interferon genes protein (Homo sapiens, UniProt Q86WV6, R293Q) (Q86WV6 whole entry R293Q): as the sequence (Q86WV6 whole entry) above, with R293Q counted along it

Chain of Stimulator of interferon genes protein (Homo sapiens, UniProt Q86WV6, G230A/R293Q) (Q86WV6 whole entry G230A/R293Q): as the sequence (Q86WV6 whole entry) above, with G230A, R293Q counted along it

For the molecule `O=C(Nc1cc(F)c(F)cc1C(=O)O)c1ccc(-n2ccnc2)nn1`, the IC50 in data set [1] was found to be 1870 nM. Moreover, the EC50 in data set [2] and in [3] was above 100000 nM throughout. Further, in [4], the clearance at 24 h is 123 mL/min/kg. For the same molecule, the inhibition in vivo at 30 mg/kg with B16-F10 was 52.4%.

On to `O=C(Nc1cc(Br)c(F)cc1C(=O)O)c1ccc(-n2cnc(F)c2)nn1`, for which the IC50 was found to be 1360 nM in data set [5]; 1480 nM in data set [6]; 2640 nM in [1]; 980 nM in [7]; 1450 nM in data set [8]. Further, the EC50 in data set [2] was 24600 nM; in data set [3], above 100000 nM.

As for `O=C(Nc1cc(Cl)c(F)cc1C(=O)O)c1ccc(-n2cnc(F)c2)nn1`, the IC50 in [5] was 1730 nM; in data set [6] it was 1840 nM; in data set [1] it was 2510 nM; in data set [7], 940 nM; in [8], 1910 nM. The values for the EC50 in data set [2] and in data set [3] were 46500 nM and above 100000 nM, respectively.

For orientation: IC50 means the concentration that inhibits the measured activity by half. The term EC50 denotes the concentration giving half of the maximal effect. A word on the clearance: it is the rate of elimination divided by the concentration. Higher therefore signals a high capacity for elimination.
